Measurements from patent publication US7868005B2, “Pyrazinyl substituted piperazine-piperidines with CXCR3 antagonist activity” (Schering Corporation, priority 2005, dated 2011).

Molecular target: T1, human CXCR3 (N-delta 4) (Homo sapiens, UniProt P49682)
T1 construct: CD8 leader (N); Flag; expressed in transfected cells; membranes prepared
T1 sequence (P49682 5-368 limits assumed): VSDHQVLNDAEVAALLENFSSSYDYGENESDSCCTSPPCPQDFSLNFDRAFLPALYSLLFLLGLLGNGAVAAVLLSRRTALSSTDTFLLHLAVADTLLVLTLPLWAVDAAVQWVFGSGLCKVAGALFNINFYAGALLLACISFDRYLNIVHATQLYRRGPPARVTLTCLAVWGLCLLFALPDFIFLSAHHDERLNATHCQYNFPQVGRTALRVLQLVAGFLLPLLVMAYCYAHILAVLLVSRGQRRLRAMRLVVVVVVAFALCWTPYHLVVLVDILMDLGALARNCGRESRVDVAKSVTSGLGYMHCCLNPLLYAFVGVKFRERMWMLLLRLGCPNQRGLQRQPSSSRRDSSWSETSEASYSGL
Test: Human CXCR3 (N-delta 4) Scintillation Proximity Assay (SPA), [125I] IP-10 binding to Ba/F3-hCXCR3 membranes
Conditions: IC50 rating, Table 1; read-out: IC50

Row | SMILES | IC50 [nM]
1 | CC[C@H]1CN(c2nc(N)c(C(=O)NCCO)nc2Cl)CCN1C1CCN(Cc2ccc(F)c(F)c2N2CCC(=O)C2)CC1 [compound 188] | 25 to 100
2 | CC[C@H]1CN(c2nc(N)c(C(=O)NCCO)nc2Cl)CCN1C1CCN(Cc2ccc(Cl)cc2O[C@H]2CCOC2)CC1 [compound 189] | 25 to 100
3 | CC[C@H]1CN(c2nc(N)c(C(=O)NCCO)nc2Cl)CCN1C1CCN(Cc2ccc(C#N)cc2OCC(=O)NCCO)CC1 [compound 191] | 25 to 100
4 | CC[C@H]1CN(c2nc(N)c(C(=O)NCCO)nc2Cl)CCN1C1CCN([C@H](C(=O)OC)c2ccc(Cl)cc2)CC1 [compound 192] | > 100
5 | CC[C@H]1CN(c2nc(N)c(C(=O)NCCO)nc2Cl)CCN1C1CCN(Cc2ccc(C#N)cc2OCCN2CCCC2=O)CC1 [compound 193] | > 100
6 | CC[C@H]1CN(c2nc(N)c(C(=O)NCCO)nc2Cl)CCN1C1CCN(Cc2ccc(Cl)cc2C(C)C(=O)OC)CC1 (some centres unmarked) [compound 194] | > 100
7 | CC[C@H]1CN(c2nc(N)c(C(=O)NCCO)nc2Cl)CCN1C1CCN(Cc2ccc(Cl)cc2OCCN2CCCC2=O)CC1 [compound 195] | > 100
8 | CC[C@H]1CN(c2nc(N)c(C(=O)NCCO)nc2Cl)CCN1C1CCN(Cc2ccc(Cl)cc2NS(C)(=O)=O)CC1 [compound 196] | > 100
9 | CC[C@H]1CN(c2nc(N)c(C(=O)NCCO)nc2Cl)CCN1C1CCN(Cc2ccc(Cl)cc2C(=O)N2CCOCC2)CC1 [compound 197] | > 100
10 | CC[C@H]1CN(c2nc(N)c(C(=O)NCCO)nc2Cl)CCN1C1CCN([C@H](C(=O)OC)c2ccc(F)c(F)c2)CC1 [compound 198] | > 100
11 | CC[C@H]1CN(c2nc(N)c(C(=O)NCCO)nc2Cl)CCN1C1CCN(C(CCN)c2ccc(Cl)cc2)CC1 (some centres unmarked) [compound 199] | > 100
12 | CC[C@H]1CN(c2nc(N)c(C(=O)NCCO)nc2Cl)CCN1C1CCN([C@H](C(=O)OC)c2ccc(C#N)cc2)CC1 [compound 200] | > 100
13 | CC[C@H]1CN(c2nc(N)c(C(=O)NCCO)nc2Cl)CCN1C1CCN(Cc2c(F)cc(F)c(F)c2O)CC1 [compound 201] | > 100
14 | CC[C@H]1CN(c2nc(N)c(C(=O)NCCO)nc2Cl)CCN1C1CCN(Cc2ccc(Cl)cc2C(C)C(=O)O)CC1 (some centres unmarked) [compound 202] | > 100
15 | CC[C@H]1CN(c2nc(N)c(C(=O)NCCO)nc2Cl)CCN1C1CCN([C@H](C(=O)O)c2ccc(Cl)cc2)CC1 [compound 203] | > 100
16 | CC[C@H]1CN(c2nc(N)c(C(=O)NCCO)nc2Cl)CCN1C1CCN(C(Cc2nn[nH]n2)c2ccc(Cl)cc2)CC1 (some centres unmarked) [compound 204] | > 100
17 | CC[C@H]1CN(c2nc(N)c(C(=O)NCCO)nc2Cl)CCN1C1CCN(Cc2ccc(N3CCOCC3)c(F)c2F)CC1 [compound 205] | > 100
18 | CC[C@H]1CN(c2nc(N)c(C(=O)NCCO)nc2Cl)CCN1C1CCN(C(C(=O)OC)c2ccc(Cl)cc2OC)CC1 (some centres unmarked) [compound 206] | > 100
19 | CC[C@H]1CN(c2nc(N)c(C(=O)NCCO)nc2Cl)CCN1C1CCN(C(c2ccc(Cl)cc2)c2nccs2)CC1 (some centres unmarked) [compound 207] | > 100
20 | CC[C@H]1CN(c2nc(N)c(C(=O)NCc3nccs3)nc2Cl)CCN1C1CCN(Cc2ccc(C#N)cc2)CC1 [compound 208] | > 100

Row | SMILES | IC50 [nM]
21 | CC[C@H]1CN(c2nc(N)c(C(=O)N3CC[C@H](NS(C)(=O)=O)C3)nc2Cl)CCN1C1CCN(Cc2ccc(Cl)cc2)CC1 [compound 209] | > 100
22 | CC[C@H]1CN(c2nc(N)c(C(=O)N[C@@H]3CCCNC3=O)nc2Cl)CCN1C1CCN(Cc2ccc(C#N)cc2)CC1 [compound 210] | > 100
23 | CC[C@H]1CN(c2nc(N)c(C(=O)N[C@H]3CCN(C)C3=O)nc2Cl)CCN1C1CCN(Cc2ccc(C#N)cc2)CC1 [compound 211] | > 100
24 | CC[C@H]1CN(c2nc(N)c(C(=O)NCc3cc(O)no3)nc2Cl)CCN1C1CCN(Cc2ccc(Cl)cc2)CC1 [compound 212] | > 100
25 | CC[C@H]1CN(c2nc(N)c(C(=O)NCC(N)=O)nc2Cl)CCN1C1CCN(Cc2ccc(Cl)cc2)CC1 [compound 213] | 25 to 100
26 | CC[C@H]1CN(c2nc(N)c(C(=O)NCC(=O)OC)nc2Cl)CCN1C1CCN(Cc2ccc(Cl)cc2)CC1 [compound 214] | < 25
27 | CC[C@H]1CN(c2nc(N)c(C(=O)NCC(F)(F)F)nc2Cl)CCN1C1CCN(Cc2ccc(Cl)cc2)CC1 [compound 216] | < 25
28 | CC[C@H]1CN(c2nc(N)c(C(=O)NCC(C)O)nc2Cl)CCN1C1CCN(Cc2ccc(Cl)cc2)CC1 (some centres unmarked) [compound 217] | < 25
29 | CC[C@H]1CN(c2nc(N)c(C(=O)NC[C@@H](C)O)nc2Cl)CCN1C1CCN(Cc2ccc(Cl)cc2[C@H](O)C(N)=O)CC1 [compound 218] | < 25
30 | CC[C@H]1CN(c2nc(N)c(C(=O)NC[C@@H](C)O)nc2Cl)CCN1C1CCN(Cc2ccc(Cl)cc2C(O)C(=O)OC)CC1 (some centres unmarked) [compound 219] | < 25
31 | CC[C@H]1CN(c2nc(N)c(C(=O)NC[C@@H](C)O)nc2Cl)CCN1C1CCN(Cc2ccc(Cl)cc2CC#N)CC1 [compound 220] | < 25
32 | CC[C@H]1CN(c2nc(N)c(C(=O)NC[C@@H](C)O)nc2Cl)CCN1C1CCN(Cc2ccc(C#N)cc2)CC1 [compound 221] | < 25
33 | CC[C@H]1CN(c2nc(N)c(C(=O)NC[C@@H](C)O)nc2Cl)CCN1C1CCN(Cc2ccc(Cl)cc2[C@@H](O)C(N)=O)CC1 [compound 222] | < 25
34 | CC[C@H]1CN(c2nc(N)c(C(=O)NC[C@@H](C)O)nc2Cl)CCN1C1CCN(Cc2ccc(Cl)cc2CCNS(C)(=O)=O)CC1 [compound 223] | < 25
35 | CC[C@H]1CN(c2nc(N)c(C(=O)NC[C@@H](C)O)nc2Cl)CCN1C1CCN(Cc2ccc(Cl)cc2CCNC(C)=O)CC1 [compound 224] | 25 to 100
36 | CC[C@H]1CN(c2nc(N)c(C(=O)NCCCNS(=O)(=O)C(F)(F)F)nc2Cl)CCN1C1CCN(Cc2ccc(C#N)cc2)CC1 [compound 225] | > 100
37 | CC[C@H]1CN(c2nc(N)c(C(=O)NCCCNS(C)(=O)=O)nc2Cl)CCN1C1CCN(Cc2ccc(C#N)cc2)CC1 [compound 226] | > 100
38 | CC[C@H]1CN(c2nc(N)c(C(=O)NCCCO)nc2Cl)CCN1C1CCN(Cc2ccc(Cl)cc2)CC1 [compound 227] | 25 to 100
39 | CC[C@H]1CN(c2nc(N)c(C(=O)NCCC#N)nc2Cl)CCN1C1CCN(Cc2ccc(C#N)cc2)CC1 [compound 228] | < 25
40 | CC[C@H]1CN(c2nc(N)c(C(=O)NCCNc3ncccn3)nc2Cl)CCN1C1CCN(Cc2ccc(Cl)cc2)CC1 [compound 229] | < 25

Row | SMILES | IC50 [nM]
41 | CC[C@H]1CN(c2nc(N)c(C(=O)NCCNC(C)=O)nc2Cl)CCN1C1CCN(Cc2ccc(Cl)cc2)CC1 [compound 230] | < 25
42 | CC[C@H]1CN(c2nc(N)c(C(=O)NCCNC(N)=O)nc2Cl)CCN1C1CCN(C(CO)c2ccc(Cl)cc2)CC1 (some centres unmarked) [compound 231] | < 25
43 | CC[C@H]1CN(c2nc(N)c(C(=O)NCCNC(N)=O)nc2Cl)CCN1C1CCN(C(CO)c2ccc(C#N)cc2)CC1 (some centres unmarked) [compound 232] | 25 to 100
44 | CC[C@H]1CN(c2nc(N)c(C(=O)NCCN)nc2Cl)CCN1C1CCN(Cc2ccc(Cl)cc2)CC1 [compound 233] | < 25
45 | CC[C@H]1CN(c2nc(N)c(C(=O)NCCN)nc2Cl)CCN1C1CCN(Cc2ccc(Cl)cc2C#N)CC1 [compound 234] | 25 to 100
46 | CC[C@H]1CN(c2nc(N)c(C(=O)NCCNC(=O)OC(C)(C)C)nc2Cl)CCN1C1CCN(Cc2ccc(Cl)cc2C#N)CC1 [compound 235] | > 100
47 | CC[C@H]1CN(c2nc(N)c(C(=O)NCCN/C(N)=N/C#N)nc2Cl)CCN1C1CCN(Cc2ccc(Cl)cc2C#N)CC1 [compound 236] | > 100
48 | CC[C@H]1CN(c2nc(N)c(C(=O)NCCNS(=O)(=O)c3cn(C)cn3)nc2Cl)CCN1C1CCN(Cc2ccc(C#N)cc2)CC1 [compound 237] | > 100
49 | CC[C@H]1CN(c2nc(N)c(C(=O)NCCNS(=O)(=O)C(F)(F)F)nc2Cl)CCN1C1CCN(Cc2ccc(Cl)cc2)CC1 [compound 238] | < 25
50 | CC[C@H]1CN(c2nc(N)c(C(=O)NCCNS(=O)(=O)C(F)(F)F)nc2Cl)CCN1C1CCN(Cc2ccc(C#N)cc2)CC1 [compound 239] | < 25
51 | CC[C@H]1CN(c2nc(N)c(C(=O)NCCNS(=O)(=O)C(F)(F)F)nc2Cl)CCN1C1CCN(Cc2ccc(F)c(F)c2N2CC[C@@H](O)C2)CC1 [compound 240] | < 25
52 | CC[C@H]1CN(c2nc(N)c(C(=O)NCCNS(=O)(=O)C(F)(F)F)nc2Cl)CCN1C1CCN(Cc2ccc(Cl)cc2N2CC[C@@H](O)C2)CC1 [compound 241] | < 25
53 | CC[C@H]1CN(c2nc(N)c(C(=O)NCCNS(=O)(=O)CC)nc2Cl)CCN1C1CCN(Cc2ccc(C#N)cc2)CC1 [compound 242] | 25 to 100
54 | CC[C@H]1CN(c2nc(N)c(C(=O)NCCNS(C)(=O)=O)nc2Cl)CCN1C1CCN(Cc2ccc(Cl)cc2C(=N)N)CC1 [compound 243] | < 25
55 | CC[C@H]1CN(c2nc(N)c(C(=O)NCCNS(C)(=O)=O)nc2Cl)CCN1C1CCN([C@@H](CO)c2ccc(Cl)cc2)CC1 [compound 244] | < 25
56 | CC[C@H]1CN(c2nc(N)c(C(=O)NCCNS(C)(=O)=O)nc2Cl)CCN1C1CCN(Cc2ccc(Cl)cc2)CC1 [compound 245] | < 25
57 | CCOC(=O)/N=C(\N)c1cc(Cl)ccc1CN1CCC(N2CCN(c3nc(N)c(C(=O)NCCNS(C)(=O)=O)nc3Cl)C[C@@H]2CC)CC1 [compound 246] | < 25
58 | CC[C@H]1CN(c2nc(N)c(C(=O)NCCNS(C)(=O)=O)nc2Cl)CCN1C1CCN(Cc2ccc(C#N)cc2)CC1 [compound 247] | 25 to 100
59 | CC[C@H]1CN(c2nc(N)c(C(=O)NCCNS(C)(=O)=O)nc2Cl)CCN1C1CCN(Cc2ccc(Cl)cc2N2CC[C@@H](O)C2)CC1 [compound 248] | 25 to 100
